Measurements as given in US20090181968A1, “Novel 3-Bicyclocarbonylaminopyridine-2-Carboxamides or 3-Bicyclocarbonylaminopyrazine-2-Carboxamides” (priority 2005, published 2009).
Like-named read-outs stand apart in the source and are kept apart here.

What was measured:
human CB1 receptor [1] = target: T1, human CB1 receptor (Homo sapiens, UniProt P21554); experiment: hCB1 receptor binding (3H-CP55,940 displacement)
T1 construct: purchased Perkin-Elmer
Protocol: hCB1 and hCB2 Receptor Binding
Membranes are produced from either HEK 293S cells expressing the cloned human CB1 receptor (hCB1: clone #24) or Sf9 cells, using the baculovirus system, expressing the cloned human CB2 receptor (hCB2). The membranes are thawed at 37° C., passed 3 times through a 23-gauge blunt-end needle, diluted in the cannabinoid binding buffer (50 mM Tris, 2.5 mM EDTA, 5 mM MgCl2, and 0.5 mg/mL BSA fatty acid free, pH 7.4) and aliquots containing the appropriate amount of protein are distributed in 96-well plates. The IC50 of the compounds of the present invention at hCB1 and hCB2 are evaluated from 10-point dose-response curves done with ^3H-CP55,940 at 20000 to 25000 dpm per well (0.17-0.21 nM) in a final volume of 300 μl. The total and non-specific binding are determined in the absence and presence of 0.2 μM of HU210 respectively. The plates are vortexed and incubated for 60 minutes at room temperature, filtered through Unifilters GF/B (pre-soaked in 0.1% polyethyleneimine) with the Packard harvester using 3 mL of wash buffer (50 mM Tris, 5 mM MgCl2, 0.5 mg BSA pH 7.0). The filters are dried for 1 hour at 55° C. The radioactivity (cpm) is counted in a TopCount (Packard) after adding 65 μl/well of MS-20 scintillation liquid.
Based on the above assays, the dissociation constant (Ki) for a particular compound of the present invention towards a particular receptor is determined using the following equation: […]
wherein IC50 is the concentration of the compound of the present invention at which 50% displacement has been observed; [rad] is a standard or reference radioactive ligand concentration at that moment; Kd is the dissociation constant of the radioactive ligand towards the particular receptor.

human CB1 receptor [2] = target: T1, human CB1 receptor; experiment: hCB1 GTPγS binding; type: biochemical; settings: for Emax: read-out: Emax hCB1
Protocol: Cloned human CB1 receptor from Perkin-Elmer (hCB1) are thawed at 37° C., passed 3 times through a 23-gauge blunt-end needle and diluted in the GTPγS binding buffer (50 mM Hepes, 20 mM NaOH, 100 mM NaCl, 1 mM EDTA, 5 mM MgCl2, pH 7.4, 0.1% BSA). […] The basal and maximal stimulated binding is determined in absence and presence of 10 μM Win 55,212-2. The membranes are pre-incubated for 5 minutes with 112.5 μM GDP prior to distribution in plates (30 μM GDP final). The plates are vortexed and incubated for 60 minutes at room temperature, filtered on Unifilters GF/B (pre-soaked in water) with the Packard harvester using 3 ml of wash buffer (50 mM Tris, 5 mM MgCl2, 50 mM NaCl, pH 7.0). The filters are dried for 1 hour at 55° C. The radioactivity (cpm) is counted in a TopCount (Packard) after adding 65 μl/well of MS-20 scintillation liquid.

T1 sequence (P21554 whole entry): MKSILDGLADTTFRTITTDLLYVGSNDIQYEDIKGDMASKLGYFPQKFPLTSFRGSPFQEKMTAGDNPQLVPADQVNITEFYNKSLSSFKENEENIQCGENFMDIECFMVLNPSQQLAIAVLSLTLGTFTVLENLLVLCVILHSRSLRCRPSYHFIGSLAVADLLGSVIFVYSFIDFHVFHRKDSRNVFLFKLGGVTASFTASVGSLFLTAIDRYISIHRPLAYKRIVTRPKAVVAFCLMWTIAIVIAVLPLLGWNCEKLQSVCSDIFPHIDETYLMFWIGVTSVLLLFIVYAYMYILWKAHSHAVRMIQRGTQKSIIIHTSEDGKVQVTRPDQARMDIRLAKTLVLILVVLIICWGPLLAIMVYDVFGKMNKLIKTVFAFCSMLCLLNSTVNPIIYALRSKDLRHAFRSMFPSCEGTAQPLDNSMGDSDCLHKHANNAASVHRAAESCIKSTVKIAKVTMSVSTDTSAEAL

Compound | Ki (human CB1 receptor [1]) [nM] | EC50 (human CB1 receptor [2]) [nM] | Emax (human CB1 receptor [2]) [%] | Ki (human CB1 receptor [1]; membranes of HEK 293S cells expressing cloned human CB1 receptor, Ki=IC50/(1+[rad]/Kd), read-out: Ki hCB1) [nM] | EC50 (human CB1 receptor [2]; GTPγ35S binding, cloned human CB1 receptor membranes, read-out: EC50 hCB1) [nM]
CN(C)C(=O)COc1ccc(NC(=O)c2ccc(Cn3ccnn3)c3ccccc23)c(C(=O)NCC2CCC2)n1 [Example 6, N-(cyclobutylmethyl)-6-[2-(dimethylamino)-2-oxoethoxy]-3-{[4-(1H-1,2,3-triazol-1-ylmethyl)-1-naphthoyl]amino}pyridine-2-carboxamide] | 52 | 80 | 88 | – | –
O=C(COc1ccc(NC(=O)c2ccc(Cn3ccnn3)c3ccccc23)c(C(=O)NCC2CCC2)n1)NCCO [Example 7, N-(cyclobutylmethyl)-6-{2-[(2-hydroxyethyl)amino]-2-oxoethoxy}-3-{[4-(1H-1,2,3-triazol-1-ylmethyl)-1-naphthoyl]amino}pyridine-2-carboxamide] | 59 | 120 | 110 | – | –
O=C(NCC1CCC1)c1nc(OCc2ccccn2)ccc1NC(=O)c1ccc(Cn2ccnn2)c2ccccc12 [Example 14, N-(cyclobutylmethyl)-6-(pyridin-2-ylmethoxy)-3-{[4-(1H-1,2,3-triazol-1-ylmethyl)-1-naphthoyl]amino}pyridine-2-carboxamide] | 3.2 | 7.3 | 110 | – | –
COCc1cnnn1Cc1ccc(C(=O)Nc2cccnc2C(=O)NCC2CCC2)c2ccccc12 [Example 15, N-(cyclobutylmethyl)-3-[(4-{[5-(methoxymethyl)-1H-1,2,3-triazol-1-yl]methyl}-1-naphthoyl)amino]pyridine-2-carboxamide] | 13 | 22 | 120 | – | –
O=C(COc1ccc(NC(=O)c2ccc(Cn3ccnn3)c3ccccc23)c(C(=O)NCC2CCC2)n1)NCc1ccccc1 [Example 27, 6-(Benzylcarbamoyl-methoxy)-3-[(4-[1,2,3]triazol-1-ylmethyl-naphthalene-1-carbonyl)-amino]-pyridine-2-carboxylic Acid Cyclobutylmethyl-amide] | 35 | 42 | 94 | – | –
CC(C)OC(=O)COc1ccc(NC(=O)c2ccc(Cn3ccnn3)c3ccccc23)c(C(=O)NCC2CCC2)n1 [Example 29, {6-(Cyclobutylmethyl-carbamoyl)-5-[(4-[1,2,3]triazol-1-ylmethyl-naphthalene-1-carbonyl)-amino]-pyridin-2-yloxy}-acetic Acid Isopropyl Ester] | 5.4 | 7.1 | 80 | – | –
COCc1ccc(C(=O)Nc2ccc(OCCO)nc2C(=O)NCC2CCOCC2)c2ccccc12 [Example 35, 6-(2-Hydroxy-ethoxy)-3-[(4-methoxymethyl-naphthalene-1-carbonyl)-amino]-pyridine-2-carboxylic Acid (tetrahydro-pyran-4-ylmethyl)-amide] | 53 | 99 | 93 | – | –
O=C(NCC1CCOCC1)c1nc(OS(=O)(=O)CCC(F)(F)F)cnc1NC(=O)c1ccc(Cn2ccnn2)c2ccccc12 [Example 44, 6-[(Tetrahydro-2H-pyran-4-ylmethyl)carbamoyl]-5-{[4-(1H-1,2,3-triazol-1-ylmethyl)-1-naphthoyl]amino}pyrazin-2-yl 3,3,3-trifluoropropane-1-sulfonate] | 270 | 240 | 140 | – | –
O=C(NCC1CCC1)c1ncccc1NC(=O)c1ccc(Cn2cc(F)nn2)c2ccccc12 [Example 50, N-(Cyclobutylmethyl)-3-({4-[(4-fluoro-1H-1,2,3-triazol-1-yl)methyl]-1-naphthoyl}amino)pyridine-2-carboxamide] | 51 | 46 | 48 | – | –
O=C(NCC1CCOCC1)c1ncccc1NC(=O)c1csc2ccccc12 [Example 56, 3-[(1-benzothien-3-yl-carbonyl)amino]-N-(tetrahydro-2H-pyran-4-ylmethyl)pyridine-2-carboxamide] | – | – | 88 | 260 | 380
